Results published in patent US20180147183A1, “USE OF R-OXIRACETAM IN PHARMACEUTICAL FIELD” (Chongqing Runze Pharmaceutical Co., Ltd., priority 2015, published 2018).
“And” between values parts separate entries of the source, which are not always exact repeats. Identical values can stand only once. Marks after values point to notes of the source that are not given here.

Assays:
[1] = Pharmacokinetics and bioavailability in dogs, plasma determined by LC-MS; format: in vivo, dog
Experimental: A. The Pharmacokinetics of R-Oxiracetam In Vivo and Studies of Bioavailability
4 Determination Methods of Oxiracetam and R-Oxiracetam in Plasma by LC-MS
4.1 Chromatographic Conditions
Mobile phase: methanol: water (5:95)
Column: ZORBAX SB-Aq (2.1×100 mm 3.5μ)
Column temperature: 30° C.;
Injection volume: […] 4.2 Mass Spectrometry Detection Parameters
Mass spectrometry ionization method: electrospray ionization (ESI); ion polarity Positive; scanning mode for multiple reactions monitoring (MRM); scanning time of 100 ms. The ionic reactions used for quantitative analysis were m/z (oxiracetam) m/z 159.0→m/z 113.9 and m/z 143.1→m/z 126.0 (piracetam), respectively.
20 μL of the drug-containing the plasma sample is taken in a 1.5 mL Eppendorf tube. 20 μL of piracetam (20 μg/mL) of the internal standard solution is added, and mixed by the vortex mixer for 30s. Then, 500 μL of acetonitrile is added thereto, vortex shaken for 5 min and centrifugated at 16000 rpm for 10 min. The supernatant from the centrifugation was passed through 1 ml of SPE C 18E column and the filtrate was collected, put into 38° C. constant temperature water bath and dried by nitrogen gas. 300 μL of mobile phase was dissolved and the injection volume was 10 μL.
20 μL of blank dog plasma was added into the working solution prepared from the oxiracetam standard. The concentrations of oxiracetam in the plasma were 0.167, 0.33, 0.37, 1.33, 2.67, 4.0, 6.67, 13.33 and 26.67 μg/mL, respectively. A sample was made for each concentration respectively according to the procedures“4.4 Extraction of plasma samples”. The ratio of the peak area (As) of oxiracetam to the peak area (Ai) of the internal standard piracetam (f=As/Ai) were calculated, and perform linear regression using the concentration (C) to the ratio (f). The weight parameter 1/x, and the oxiracetam regression equation: y=5.2117X−0.76985 (r=0.9970, weight 1/x).
20 μL of blank dog plasma was added into the working solution prepared from the R-oxiracetam standard. The concentrations of R-oxiracetam in the plasma were 0.167, 0.33, 0.37, 1.33, 2.67, 4.0, 6.67, 13.33 and 26.67 μg/mL, respectively. A sample was made for each concentration respectively according to the procedures “4.4 Extraction of plasma samples”. The ratio of the peak area (As) of R-oxiracetam to the peak area (Ai) of the internal standard piracetam (f=As/Ai) were calculated, and perform linear regression using the concentration (C) to the ratio (f). The weight parameter 1/x, and the oxiracetam regression equation: y=1.6811X−0.031244(r=0.9949, weight 1/x).

[2] = tested on: lithium chloride-pilocarpine epilepsy model rat; test: Lithium chloride-pilocarpine rat epilepsy model, prophylactic administration; format: in vivo, SD rats; settings: 10 rats; for mortality rate: within 1 to 7 days after modeling
From the text: Stages: epileptic seizures evaluation are categorized by Racine Stages
Stage 0: no signs of any seizure;
Stage I: staring, head and face slightly trembling;
Stage II: head nodding or wet dog-like shaking;
Stage III: forelimb limit convulsions;
Stage IV: full-body ankylosing convulsions with a standing hind limb;
Stage V: full-body ankylosing clonic seizures with standing with fell;
Partial epilepsy seizure occurs when any one of Stage Ito Stage III appears;
Generalized epilepsy seizure occurs when Stage IV or Stage V appears;
Status epilepticus (SE) occurs when Stage IV or Stage V lasts 30 minutes.
The rat epilepsy models were treated with lithium chloride-pilocarpine and used levetiracetam as positive control. The duration of acute seizures of lithium chloride-pilocarpine epilepsy model rat was selected as the observation time, and prophylactic administration was used.
Animals were randomly divided into 4 groups, 10/group. Levetiracetam was selected as a positive control, 1.5 times of clinical dose were chosen, that is, 150 mg/kg. The clinical dose of an adult is 800 mg/times, twice daily, that is, 1600 mg/60 kg, 26.7 mg/kg. The dose of a rat is converted to 160 mg/kg according to body surface area. R-oxiracetam and levorotatory oxiracetam were selected half of the dose, that is, 80 mg/kg, and 1.5 times is 120 mg/kg. The dose was 1 ml/100 g, and the rats were treated with continuous administration for 7 days. As levetiracetam administration of 1.3 h (80 min), the plasma concentration peak, so we choose the last 80 minutes after the last administration of modeling. As administration of levetiracetam for 1.3 h (80 min), the plasma concentration peak was reached, so each group was selected after the last 80 minutes after the start of modeling.
Modeling method: After several previous test, the following modeling method was chosen: Animal ip. Lithium chloride 3 mmol/kg (1.5 ml/L) 127 mg/kg (12.7 mg/ml, 1 ml/100 g body weight), 24 h, 37.5 mg/kg pilocarpine three times ip. mg/kg (2.5 mg/ml, 0.5 ml/100 g body weight) at intervals of 10 minutes. […]

[3] = cited from earlier work
[4] = tested on: Pentetrazol (PTZ) ignited rat epilepsy model; test: Pentetrazol (PTZ)-ignited rat epilepsy model; format: in vivo, SD rats; settings: for Seizure latency (X ± SD) / occurrence rates of stage IV or above seizures: 500 mg/kg daily
Experimental: Rats were injected intraperitoneally with PTZ at a dose of 35 mg/kg (7 mg/ml, 0.5 ml/100 g body weight) for sub-convulsions three times weekly. The animals are weighed before each ip, and observed for behavioral changes after ip. within 1-2 h. Behavioral scoring was carried out according to the revised Racine score. Three consecutive occurrences of seizures of stage IV and above indicate successful ignition.
The animals successfully ignited were chosen to be grouped. The animals were randomly divided into 4 groups, 8-10/group. […] 3 times of clinical dose were chosen, that is, 500 mg/kg. […] The dosage is 1 ml/100 g, continuous intragastrical administration of 10 days. Specific dose settings are as follows:
PTZ 35 mg/kg. The animals are observed for behavioral changes within 2 h. Behavioral scoring was carried out according to the revised Racine score, continuous administration for 10 days, grading standards as mentioned above.
The seizures were recorded daily ip PTZ within 2 h. The seizure levels, latencies, mortality were recorded, and compared with the model control group.

[5] = 150 mg/kg for 7 days before modeling
[6] = 120 mg/kg for 7 days before modeling

NC(=O)CN1CC(O)CC1=O (racemic) [oxiracetam]
Concentration in dog blood C ([1]; Time 0 h, individual dogs, one table per dog): 0 ng/mL
Concentration in dog blood C ([1]; Time 0.25 h, individual dogs, one table per dog): 5123 ng/mL and -4948 ng/mL and 7540 ng/mL and -4135 ng/mL and 5092 ng/mL
Concentration in dog blood C ([1]; Time 0.5 h, individual dogs, one table per dog): 41650 ng/mL and 36440 ng/mL and 42030 ng/mL and 41740 ng/mL and 42350 ng/mL
Concentration in dog blood C ([1]; Time 1 h, individual dogs, one table per dog): 106427.1 ng/mL and 101410.1 ng/mL and 79361 ng/mL and 58870 ng/mL and 139963.8 ng/mL and 290065.6 ng/mL
Concentration in dog blood C ([1]; Time 1.25 h, individual dogs, one table per dog): 104196 ng/mL and 77730 ng/mL and 107177.3 ng/mL and 68450 ng/mL and 302273 ng/mL and 142365.9 ng/mL
Concentration in dog blood C ([1]; Time 1.5 h, individual dogs, one table per dog): 122326.7 ng/mL and 104856.7 ng/mL and 96860 ng/mL and 192364.2 ng/mL and 186435.5 ng/mL
Concentration in dog blood C ([1]; Time 2 h, individual dogs, one table per dog): 161110.6 ng/mL and 146146.6 ng/mL and 100650 ng/mL and 207535.1 ng/mL and 137414 ng/mL and 228058.3 ng/mL
Concentration in dog blood C ([1]; Time 4 h, individual dogs, one table per dog): 52390 ng/mL and 40540 ng/mL and 28940 ng/mL and 42680 ng/mL and 21070 ng/mL and 33010 ng/mL
Concentration in dog blood C ([1]; Time 6 h, individual dogs, one table per dog): 8396 ng/mL and 4367 ng/mL and 4934 ng/mL and 7743 ng/mL and 29760 ng/mL and 8301 ng/mL
Concentration in dog blood C ([1]; Time 8 h, individual dogs, one table per dog): -3894 ng/mL and -4318 ng/mL and -4781 ng/mL and -745.6 ng/mL and -465.7 ng/mL
Concentration in dog blood C ([1]; Time 12 h, individual dogs, one table per dog): -4730.8 ng/mL and -4338 ng/mL and -8257 ng/mL and -2959 ng/mL and -6329 ng/mL and -958.4 ng/mL
Concentration in dog blood C ([1]; Time 24 h, individual dogs, one table per dog): 0 ng/mL and 21660 ng/mL
concentration at 0 h ([1]; dog, plasma, Time 0 h, individual dogs, one table per dog, read-out: Concentration in dog blood C): 0 ng/mL
concentration at 0.25 h ([1]; dog, plasma, Time 0.25 h, individual dogs, one table per dog, read-out: Concentration in dog blood C): 4890 ng/mL
concentration at 0.5 h ([1]; dog, plasma, Time 0.5 h, individual dogs, one table per dog, read-out: Concentration in dog blood C): 28200 ng/mL
concentration at 1.5 h ([1]; dog, plasma, Time 1.5 h, individual dogs, one table per dog, read-out: Concentration in dog blood C): 148000 ng/mL
concentration at 8 h ([1]; dog, plasma, Time 8 h, individual dogs, one table per dog, read-out: Concentration in dog blood C): 3120 ng/mL
Cmax ([1]; dog, plasma, dogs, mean ± SD): 202000 ± 79500 ng/mL

CC[C@@H](C(N)=O)N1CCCC1=O [Levetiracetam]
Latency Stage I [2, 5]: 17.6 ± 4.1 min
Latency Stage II [2, 5]: 22.6 ± 5.8 min
Latency Stage III [2, 5]: 34.6 ± 9.4 min
Latency Stage IV [2, 5]: 33.6 ± 8.3 min
Latency Stage V [2, 5]: 74.3 ± 24.3 min
Number of Deaths [2, 5]: 5
Number of SE Animals [2, 5]: 7
Number of seizures Stage I [2, 5]: 1.8 ± 0.8 times
Number of seizures Stage II [2, 5]: 4.4 ± 3.7 times
Number of seizures Stage III [2, 5]: 3.6 ± 2.3 times
Occurrence rate Stage I [2, 5]: 10%
Occurrence rate Stage II [2, 5]: 9%
Occurrence rate Stage III [2, 5]: 8%
Occurrence rate Stage IV [2, 5]: 7%
Occurrence rate Stage V [2, 5]: 7%
duration Stage IV [2, 5]: 23.3 ± 6.6 min
duration Stage V [2, 5]: 63.3 ± 19.0 min
mortality rate [2, 5]: 50%
time of plasma concentration peak after administration ([3]; in vivo): 1.3 h

NC(=O)CN1C[C@@H](O)CC1=O [S-oxiracetam]
Latency Stage I [2, 6]: 16.9 ± 5.4 min
Latency Stage II [2, 6]: 26.7 ± 6.5 min
Latency Stage III [2, 6]: 35.4 ± 5.8 min
Latency Stage IV [2, 6]: 37.8 ± 7.4 min
Latency Stage V [2, 6]: 64.5 ± 23.2 min
Number of Deaths [2, 6]: 3
Number of SE Animals [2, 6]: 4
Number of seizures Stage I [2, 6]: 2.2 ± 1.0 times
Number of seizures Stage II [2, 6]: 5.2 ± 3.1 times
Number of seizures Stage III [2, 6]: 5.6 ± 4.2 times
Occurrence rate Stage I [2, 6]: 10%
Occurrence rate Stage II [2, 6]: 10%
Occurrence rate Stage III [2, 6]: 5%
Occurrence rate Stage IV [2, 6]: 4%
Occurrence rate Stage V [2, 6]: 4%
duration Stage IV [2, 6]: 27.5 ± 12.1 min
duration Stage V [2, 6]: 79.8 ± 29.5 min
mortality rate [2, 6]: 30%

CCCC(CCC)C(=O)[O-].[Na+] [Sodium valproate, reference compound]
Seizure latency (X ± SD) ([4]; D1): 4.00 ± 1.41 m
occurrence rates of stage IV or above seizures ([4]; D1): 4/6 (66.7) %
Seizure latency (X ± SD) ([4]; D2): 5.67 ± 2.25 m
occurrence rates of stage IV or above seizures ([4]; D2): 3/6(50.0) %
Seizure latency (X ± SD) ([4]; D3): 5.67 ± 1.37 m
occurrence rates of stage IV or above seizures ([4]; D3): 3/6 (50.0) %
Seizure latency (X ± SD) ([4]; D4): 6.33 ± 1.63 m
occurrence rates of stage IV or above seizures ([4]; D4): 2/6 (33.3) %
occurrence rates of stage IV or above seizures ([4]; D5): 2/6 (33.3) %
occurrence rates of stage IV or above seizures ([4]; D6): 2/6 (33.3) %
occurrence rates of stage IV or above seizures ([4]; D7): 1/6* (16.7) %
occurrence rates of stage IV or above seizures ([4]; D8): 0/6** (0) %
occurrence rates of stage IV or above seizures ([4]; D9): 1/6 (16.7) %
Seizure latency (X ± SD) ([4]; D10): 8.33 ± 0.82 m
occurrence rates of stage IV or above seizures ([4]; D10): 0/6* (0) %
mortality rate ([4]; 500 mg/kg intragastric, 10 days): 0%
Numbers of deaths (Number) ([4]; 500 mg/kg intragastric, 10 days, 6 animals): 0
bioavailability ([3]; oral administration): ~100%
